The values that follow come from patent US20230295118A1 (EnhancedBio Inc., priority 2022, published 2023).

Usually DC50 stands for the midpoint of the concentration-degradation curve. As a reminder, the Dmax is the largest share of the target that was removed.

Where two headings read alike, the source gives them in different places. Where only a bound is given, the exact number is not on record here.

Format in all cases: cell-based
For one experiment, the target named is T1, CDK4 (Homo sapiens, UniProt P11802).
T1 construct: endogenous in cells
T1 sequence (P11802 whole entry): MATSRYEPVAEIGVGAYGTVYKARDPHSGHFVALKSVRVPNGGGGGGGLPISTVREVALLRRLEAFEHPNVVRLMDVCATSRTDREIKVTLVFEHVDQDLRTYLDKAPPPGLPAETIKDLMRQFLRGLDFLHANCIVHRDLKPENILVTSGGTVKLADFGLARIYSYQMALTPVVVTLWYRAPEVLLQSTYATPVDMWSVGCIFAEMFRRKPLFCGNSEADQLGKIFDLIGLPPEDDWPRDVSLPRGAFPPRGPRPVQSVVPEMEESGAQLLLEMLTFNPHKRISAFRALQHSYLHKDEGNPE
The experiment in a line: CDK4 degradation (DC50, Dmax).

Experiment [1] relates to mantle cell lymphoma cell (Mino or JeKo-1). The experiment is described as follows: Antiproliferative effect, MTS cell viability assay. The method, then:
Antiproliferative effect of the exemplary compounds was assessed in B-cell malignancy models.
To assess the effect of the exemplary compounds on cell viability in B-cell malignancy models by degradation of CDK4/6 proteins, Mino cells were treated with varying concentrations of exemplary compounds (0, 0.0001, 0.001, 0.01, 0.1, 1 μM) or positive control (palbociclib and abemaciclib). Under these conditions, cell viability was determined by an MTS assay. Cytotoxicity was assayed by the determination of reduced tetrazolium (formazan) created by metabolically active cells as detected at 490 nanometers (nm) absorbance using a microplate reader (BMG Labtech, Cary, NC, USA).
The exemplary compounds attenuated the viability of Mino cells in a concentration-dependent manner at 72 h post treatment. Results are shown in Table 1 and FIGS. 2-15 for each exemplary compound.

A further experiment addresses T2, CDK6 (Homo sapiens, UniProt Q00534).
T2 construct: endogenous in cells
The experiment in a line: CDK6 degradation (DC50, Dmax).

Setting [2] is: 72 h, mantle cell lymphoma cell (Mino or JeKo-1), MTS assay, read-out: IC50 (anti-proliferation).
Where [3] appears, read: mantle cell lymphoma cell (Mino or JeKo-1); MTS assay, 72 h; read-out: IC50 (anti-proliferation).

T2 sequence (Q00534 whole entry): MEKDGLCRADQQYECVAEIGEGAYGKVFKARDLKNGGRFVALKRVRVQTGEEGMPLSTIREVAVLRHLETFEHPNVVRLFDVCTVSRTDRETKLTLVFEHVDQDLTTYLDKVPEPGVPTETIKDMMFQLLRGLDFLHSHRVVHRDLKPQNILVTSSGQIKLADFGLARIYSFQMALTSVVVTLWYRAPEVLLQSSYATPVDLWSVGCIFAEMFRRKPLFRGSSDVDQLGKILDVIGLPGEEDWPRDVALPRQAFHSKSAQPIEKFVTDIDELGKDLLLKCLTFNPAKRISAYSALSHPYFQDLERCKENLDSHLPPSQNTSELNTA

Consider `CC(=O)c1c(C)c2cnc(Nc3ccc(N4CCN(C(=O)N5CCN(CCN6CCC(c7ccc8c(c7)C(=O)N(C7CCC(=O)NC7=O)C8=O)CC6)CC5)CC4)cn3)nc2n(C2CCCC2)c1=O` (centres unmarked) [Compound 27, 5-(1-(2-(4-(4-(6-((6-acetyl-8-cyclopentyl-5-methyl-7-oxo-7,8-dihydropyrido[2,3-d]pyrimidin-2-yl)amino)pyridin-3-yl)piperazine-1-carbonyl)piperazin-1-yl)ethyl)piperidin-4-yl)-2-(2,6-dioxopiperidin-3-yl)isoindoline-1,3-dione], for which, on CDK4, the DC50 was > 200 nM and the Dmax is > 60%. Moreover, the IC50 in experiment [1] (setting [2]) lay within 50 to 200 nM. For the same compound, on CDK6, the 50% degradation concentration (DC50) was > 200 nM and the Dmax is > 60%.
Take `CC(=O)c1c(C)c2cnc(Nc3ccc(N4CCN(C(=O)N5CCN(CCN6CCC(c7ccc8c(c7)CN(C7CCC(=O)NC7=O)C8=O)CC6)CC5)CC4)cn3)nc2n(C2CCCC2)c1=O` (centres unmarked) [Compound 28, 3-(5-(1-(2-(4-(4-(6-((6-acetyl-8-cyclopentyl-5-methyl-7-oxo-7,8-dihydropyrido[2,3-d]pyrimidin-2-yl)amino)pyridin-3-yl)piperazine-1-carbonyl)piperazin-1-yl)ethyl)piperidin-4-yl)-1-oxoisoindolin-2-yl)piperidine-2,6-dione]: the DC50 on CDK4 and at CDK6 was > 200 nM each time. For the same compound, the Dmax on CDK4 and on CDK6 was > 60% each time. In addition, the IC50 in experiment [1] (setting [2]) was 50 to 200 nM.
As to `CC(=O)c1c(C)c2cnc(Nc3ccc(N4CCN(C(=O)N5CCC(CCN6CCC(c7ccc8c(c7)C(=O)N(C7CCC(=O)NC7=O)C8=O)CC6)CC5)CC4)cn3)nc2n(C2CCCC2)c1=O` (centres unmarked) [Compound 29, 5-(1-(2-(1-(4-(6-((6-acetyl-8-cyclopentyl-5-methyl-7-oxo-7,8-dihydropyrido[2,3-d]pyrimidin-2-yl)amino)pyridin-3-yl)piperazine-1-carbonyl)piperidin-4-yl)ethyl)piperidin-4-yl)-2-(2,6-dioxopiperidin-3-yl)isoindoline-1,3-dione], at CDK4, the DC50 is > 200 nM and the Dmax is > 50%. Besides, in experiment [1] (setting [2]), the IC50 was > 200 nM. Also, on CDK6, the DC50 was > 200 nM and the Dmax was > 50%.
Take `CC(=O)c1c(C)c2cnc(Nc3ccc(N4CCN(C(=O)N5CCC(CCN6CCC(c7ccc8c(c7)CN(C7CCC(=O)NC7=O)C8=O)CC6)CC5)CC4)cn3)nc2n(C2CCCC2)c1=O` (centres unmarked) [Compound 30, 3-(5-(1-(2-(1-(4-(6-((6-acetyl-8-cyclopentyl-5-methyl-7-oxo-7,8-dihydropyrido[2,3-d]pyrimidin-2-yl)amino)pyridin-3-yl)piperazine-1-carbonyl)piperidin-4-yl)ethyl)piperidin-4-yl)-1-oxoisoindolin-2-yl)piperidine-2,6-dione]: at CDK4, the DC50 is > 200 nM and the Dmax is > 50%. In addition, in experiment [1] (setting [2]), the IC50 was > 200 nM. Besides, at CDK6, the DC50 was > 200 nM and the Dmax was > 50%.
As to `CC(=O)c1c(C)c2cnc(Nc3ccc(N4CCN(CC5CCN(C(=O)N6CCN(c7ccc8c(c7)C(=O)N(C7CCC(=O)NC7=O)C8=O)CC6)CC5)CC4)cn3)nc2n(C2CCCC2)c1=O` (centres unmarked) [Compound 31, 5-(4-(4-((4-(6-((6-acetyl-8-cyclopentyl-5-methyl-7-oxo-7,8-dihydropyrido[2,3-d]pyrimidin-2-yl)amino)pyridin-3-yl)piperazin-1-yl)methyl)piperidine-1-carbonyl)piperazin-1-yl)-2-(2,6-dioxopiperidin-3-yl)isoindoline-1,3-dione], on CDK4, the DC50 was 50 to 200 nM and the Dmax is > 80%. In addition, the IC50 in experiment [1] (setting [3]) is < 50 nM. In addition, on CDK6, the DC50 lay in the range of 50 to 200 nM and the Dmax is > 80%.
As for `CC(=O)c1c(C)c2cnc(Nc3ccc(N4CCN(CC5CCN(C(=O)N6CCN(c7ccc8c(c7)CN(C7CCC(=O)NC7=O)C8=O)CC6)CC5)CC4)cn3)nc2n(C2CCCC2)c1=O` (centres unmarked) [Compound 32, 3-(5-(4-(4-((4-(6-((6-acetyl-8-cyclopentyl-5-methyl-7-oxo-7,8-dihydropyrido[2,3-d]pyrimidin-2-yl)amino)pyridin-3-yl)piperazin-1 - yl)methyl)piperidine-1-carbonyl)piperazin-1-yl)-1-oxoisoindolin-2-yl)piperidine-2,6-dione], the DC50 on CDK4 and on CDK6 was 50 to 200 nM in each case. Besides, the Dmax at CDK4 and on CDK6 was > 60% each time. In addition, the IC50 in experiment [1] (setting [2]) fell in the range of 50 to 200 nM.
With `CC(=O)c1c(C)c2cnc(Nc3ccc(N4CCN(CC5CCN(C(=O)N6CCC(c7ccc8c(c7)C(=O)N(C7CCC(=O)NC7=O)C8=O)CC6)CC5)CC4)cn3)nc2n(C2CCCC2)c1=O` (centres unmarked) [Compound 33, 5-(1-(4-((4-(6-((6-acetyl-8-cyclopentyl-5-methyl-7-oxo-7,8-dihydropyrido[2,3-d]pyrimidin-2-yl)amino)pyridin-3-yl)piperazin-1-yl)methyl)piperidine-1-carbonyl)piperidin-4-yl)-2-(2,6-dioxopiperidin-3-yl)isoindoline-1,3-dione], the DC50 at CDK4 and at CDK6 was > 200 nM in each case. In addition, the Dmax at CDK4 is > 60%; at CDK6, > 50%. Further, the IC50 in experiment [1] (setting [2]) fell in the range of 50 to 200 nM.
`CC(=O)c1c(C)c2cnc(Nc3ccc(N4CCN(CC5CCN(C(=O)N6CCC(c7ccc8c(c7)CN(C7CCC(=O)NC7=O)C8=O)CC6)CC5)CC4)cn3)nc2n(C2CCCC2)c1=O` (centres unmarked) [Compound 34]: on CDK4, the DC50 is > 200 nM and the Dmax is > 50%. In addition, the IC50 in experiment [1] (setting [2]) was > 200 nM. In addition, at CDK6, the DC50 was > 200 nM and the Dmax is > 50%.
For `CC(=O)c1c(C)c2cnc(Nc3ccc(N4CCN(C5CCN(C(=O)N6CCN(c7ccc8c(c7)C(=O)N(C7CCC(=O)NC7=O)C8=O)CC6)CC5)CC4)cn3)nc2n(C2CCCC2)c1=O` (centres unmarked) [Compound 35, 5-(4-(4-(4-(6-((6-acetyl-8-cyclopentyl-5-methyl-7-oxo-7,8-dihydropyrido[2,3-d]pyrimidin-2-yl)amino)pyridin-3-yl)piperazin-1-yl)piperidine-1-carbonyl)piperazin-1-yl)-2-(2,6-dioxopiperidin-3-yl)isoindoline-1,3-dione], the DC50 was 50 to 200 nM at CDK4 and > 200 nM at CDK6. For the same compound, the Dmax on CDK4 and on CDK6 was > 60% each time. Also, the IC50 in experiment [1] (setting [3]) was in the range of 50 to 200 nM.
As for `CC(=O)c1c(C)c2cnc(Nc3ccc(N4CCN(C5CCN(C(=O)N6CCN(c7ccc8c(c7)CN(C7CCC(=O)NC7=O)C8=O)CC6)CC5)CC4)cn3)nc2n(C2CCCC2)c1=O` (centres unmarked) [Compound 36, 3-(5-(4-(4-(4-(6-((6-acetyl-8-cyclopentyl-5-methyl-7-oxo-7,8-dihydropyrido[2,3-d]pyrimidin-2-yl)amino)pyridin-3-yl)piperazin-1-yl)piperidine-1-carbonyl)piperazin-1-yl)-1-oxoisoindolin-2-yl)piperidine-2,6-dione], the DC50 at CDK4 and on CDK6 was > 200 nM throughout. Besides, the Dmax at CDK4 and on CDK6 was > 60% each time. For the same compound, the IC50 in experiment [1] (setting [2]) fell in the range of 50 to 200 nM.
